Patent publication EP1216701A1, “Process to increase the concentration of meiosis-activating sterols (MAS) in the cholesterol synthesis and the use of potent inhibitors in the process” (Schering Aktiengesellschaft, priority 2000, dated 2002)

Columns and labels:
HepG2 cells [1] = assay: Accumulation of cholesterol precursors / C29-sterols (MAS) in HepG2 cells, GC/MS (SIM); assay type: cell-based, Human; conditions: HepG2 cells; for Increases in FF-MAS / Increases in T-MAS: 1 µM, refers to Table 1; for Dienol (m/z 486) / Enol T-MAS (m/z 484) / Trienol FF-MAS (m/z 482): ± SD; for suppression of the Δ24 reduction step (accumulation of desmosterol): absence of miconazole, 10 µM potent inhibitors or 1 µM tamoxifen for 12 h
Procedure: (§1) Human hepatoma HepG2 cells were cultured to confluency in 60-mm dishes in phenol-red-free Dulbecco's modified Eagle's medium (DMEM) containing Pen-Strep (100 µg/ml), glucose (10 mM), sodium bicarbonate (45 mM) and glutamine (4 mM) supplemented with 10% fetal calf serum as described previously (24). At the beginning of the experiment the medium was changed to serum-free DMEM supplemented with 10% lipid-free "controlled process serum replacement" (CPSR-1). Compounds were added from ethanolic stock solutions to produce final ethanol concentrations of 0.1-0.3% v/v. Controls received the same amount of ethanol. Aminotriazole was added in an aqueous solution. Slices of rat testis (25 µm; 25-50 mg wet weight) were incubated under the same conditions in a shaking water bath (37°C). For isotopomer spectral analysis (ISA) of lathosterol, 1-^13C-acetate was added in an aqueous solution to a final concentration of 1 mM.
(§2) Cells were washed three times with ice cold PBS (pH 7.4) (once with 2 mg/ml BSA and twice with PBS alone). Epicoprostanol (1 µg in 50 µl of hexane) was added as internal standard to each sample. Sterols were extracted in hexane/isopropanol (3:2 v/v; two times with 4 ml). After drying under nitrogen and alkaline hydrolysis (1 N NaOH in 80% ethanol, 1.5 h at 70°C), the sterols were extracted with cyclohexane (two times with 3 ml). After drying under nitrogen, sterols were converted to their trimethylsilyl (TMS) derivatives by adding 100 µl bis(trimethylsilyl)trifluoracetamide (Pierce)/n-decane (1:1; v/v) and heating for 1 h at 70°C in a conical glass tube. This solution (1-2 µl) was used for gas-chromatography/mass-spectrometry (GC/MS). Rat testes (0.05-0.15 g) were homogenized manually, and lipids were extracted in hexane/isopropanol (3:2 v/v; two times with 4 ml). The extracts were deproteinized with acetone (3 ml) and processed as described above. The observed sterol levels in testis were normalized to correspond to 0.1 g of tissue (wet weight).
Gas-chromatography was done in the splitless mode with temperature programming as follows: 150°C for 1 min, followed by 20°C/min up to 260°C and 10°C/min up to 280°C (hold for 15 min). Mass spectral data were collected either in the full-scan mode (m/z 50-550) or by selective ion monitoring (SIM). For SIM analyses the electron multiplier voltage was raised by 300 V after the elution of lathosterol to increase the sensitivity of detection for lanosterol, dihydrolanosterol, methylsterols, dimethylsterols and plant sterols. The internal standard epicoprostanol was monitored at m/z 370. […] Peak integration was performed manually, and sterols were quantified from SIM analyses against the internal standard. Unless stated otherwise, MAS amounts are given as a percentage of the control.

Δ24-reductase = target: T1, Δ24-reductase (Homo sapiens, UniProt Q15392); assay: Δ24-reductase assay (conversion of lanosterol to dihydrolanosterol in the presence of miconazole); assay type: cell-based; conditions: HepG2 cells; conversion of lanosterol to dihydrolanosterol with added miconazole
T1 construct: endogenous in cells; host or cells: HepG2
T1 sequence (Q15392 23-516): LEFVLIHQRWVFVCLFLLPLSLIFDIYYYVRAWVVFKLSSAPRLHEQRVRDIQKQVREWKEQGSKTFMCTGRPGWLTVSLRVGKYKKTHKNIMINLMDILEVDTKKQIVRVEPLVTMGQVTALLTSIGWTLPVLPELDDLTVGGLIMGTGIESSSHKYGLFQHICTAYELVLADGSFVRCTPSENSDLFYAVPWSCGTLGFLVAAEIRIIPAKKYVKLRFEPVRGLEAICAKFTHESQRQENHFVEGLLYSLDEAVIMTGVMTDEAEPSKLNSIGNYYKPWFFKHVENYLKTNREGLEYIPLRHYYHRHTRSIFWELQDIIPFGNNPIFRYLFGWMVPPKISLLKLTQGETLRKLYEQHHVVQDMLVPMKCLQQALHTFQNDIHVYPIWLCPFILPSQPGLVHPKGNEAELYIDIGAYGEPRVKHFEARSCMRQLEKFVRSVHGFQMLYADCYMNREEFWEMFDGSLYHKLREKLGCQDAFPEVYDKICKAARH
Procedure: HepG2 cells were incubated for 12 h with 10 µM simvastatin (a kind gift from M. Stapff (MSD, Germany)) to deplete cholesterol precursors. Thereafter, the medium was changed to one containing 10 µM simvastatin, 10 µM miconazole (an inhibitor of 14α-demethylation) and 6 µg/dish lanosterol. After 12 h incubation, neutral sterols were extracted as described above, and the samples were monitored for lanosterol (m/z 498 (M^+) and m/z 393 (M-TMSOH-CH3)) and dihydrolanosterol (m/z 500 (M^+) and m/z 395 (M-TMSOH-CH3)) by GC/MS. Dihydrolanosterol was quantified by comparing the ratio of SIM abundances at m/z 395 and 370 (epicoprostanol) against a standard curve constructed from SIM results on mixtures of authentic dihydrolanosterol and epicoprostanol. Desmosterol was quantified analogously by SIM.

rat testis = assay: Levels of C29-sterols in rat testis slices, GC/MS (SIM); assay type: cell-based, Sprague-Dawley rats; conditions: 9 h, n=3, ± SD
Procedure: Unless specified otherwise, potent inhibitors, drugs, chemicals, and cell culture supplies were purchased from Sigma. T-MAS and FF-MAS were synthesized as reported recently (5) and used as reference compounds. 1-^13C-acetate was obtained from Cambridge Isotope Laboratories. Rat testes were obtained from Sprague-Dawley rats (weight <50g).
as §1, §2
(§3) Analyses were performed on a Hewlett-Packard GC/MS system (5890 series II GC interfaced to a 5971 mass selective detector) equipped with a DB-XLB column (30 m x 0.25 mm i.d. x 0.25 µm film; J&W). Gas-chromatography was done in the splitless mode with temperature programming as follows: 150°C for 1 min, followed by 20°C/min up to 260°C and 10°C/min up to 280°C (hold for 15 min). Mass spectral data were collected either in the full-scan mode (m/z 50-550) or by selective ion monitoring (SIM). For SIM analyses the electron multiplier voltage was raised by 300 V after the elution of lathosterol to increase the sensitivity of detection for lanosterol, dihydrolanosterol, methylsterols, dimethylsterols and plant sterols. The internal standard epicoprostanol was monitored at m/z 370. In unlabeled experiments, cholesterol precursors and plant sterols were monitored by the following ions: desmosterol (m/z 456; 441 and 351); Δ8-cholestenol (m/z 458); lathosterol (m/z 458); monounsaturated methylsterols (m/z 472); diunsaturated methylsterols (m/z 470); monounsaturated dimethylsterols (m/z 486); diunsaturated dimethylsterols (m/z 484); triunsaturated dimethylsterols (m/z 482); lanosterol (m/z 498 and 393) and dihydrolanosterol (m/z 500 and 395). Peak integration was performed manually, and sterols were quantified from SIM analyses against the internal standard. Unless stated otherwise, MAS amounts are given as a percentage of the control. When 1-^13C-acetate was used in the culture medium for ISA, up to 10 ions (M+0- M+10) were monitored for the TMS derivatives of lathosterol (m/z 458-468), T-MAS (m/z 484-494) and FF-MAS (m/z 482-492).

HepG2 cells [2] = assay: Isotopomer spectral analysis (ISA) of flux of 13C-acetate to lathosterol and cholesterol; assay type: cell-based, Human; conditions: 10 µM, 12 h, 1 mM 1-13C-acetate
Procedure: as §1, §3
ISA was carried out as described previously (25) by incubating cells with 1-13C-acetate. The isotopomer distribution in sterols synthesized from 1-^13C-acetate provided the fractional synthesis rate g(t) of the product and the enrichment D of the labeled precursor pool. These parameters were calculated by nonlinear regression analysis as described previously (25,26). Because here we used the molecular ions containing the TMS group for the ISA calculations, the ISA program was modified to correct for the additional C, H and Si atoms from the derivatization reagent. Statistical differences were assessed by Student's t-test and considered significant for P<0.05.

[3] = Conc. 1 µM (combinations 1 + 1 µM), 24 h, n=3
[4] = Conc. 10 µM (combinations 10 + 10 µM), 12 h, n=2
[5] = Conc. 10 µM (combination 10 + 10 µM)
[6] = 12-h incubation with 10 µM, n=3 incubations

SMILES: CC(=O)[C@@]1(O)CC[C@H]2[C@@H]3CCC4=CC(=O)CC[C@]4(C)[C@H]3CC[C@@]21C [17α-OH-Progesterone, 17α-Hydroxy-progesterone]
- Increases in FF-MAS (HepG2 cells [1]): 4 fold
- Increases in T-MAS (HepG2 cells [1]): 9 fold
- Dienol (m/z 486) (HepG2 cells [1]; [3]): 246 ± 26 % of control
- Enol T-MAS (m/z 484) (HepG2 cells [1]; [3]): 162 ± 15 % of control
- Trienol FF-MAS (m/z 482) (HepG2 cells [1]; [3]): 120 ± 14 % of control
- Dienol (m/z 486) (HepG2 cells [1]; [4]): 2384 ± 236 % of control
- Enol T-MAS (m/z 484) (HepG2 cells [1]; [4]): 2003 ± 201 % of control
- Trienol FF-MAS (m/z 482) (HepG2 cells [1]; [4]): 406 ± 52 % of control
- suppression of the Δ24 reduction step (accumulation of desmosterol) (HepG2 cells [1]): not
- order of suppression of Δ24 reduction (Δ24-reductase): pregnenolone > progesterone > 17α-OH-pregnenolone >> 17α-OH-progesterone
- Dienol (m/z 486) (rat testis; [5]): 199 ± 19 % of control
- Enol T-MAS (m/z 484) (rat testis; [5]): 201 ± 26 % of control
- Trienol FF-MAS (m/z 482) (rat testis; [5]): 171 ± 8 % of control
- Dienol (m/z 486) (rat testis; Conc. 20 µM): 223 ± 25 % of control
- Enol T-MAS (m/z 484) (rat testis; Conc. 20 µM): 225 ± 22 % of control
- Trienol FF-MAS (m/z 482) (rat testis; Conc. 20 µM): 240 ± 40 % of control
- lowering of the total amount of lathosterol (HepG2 cells [2]): ca. 50%
- reduction of de novo lathosterol synthesis (HepG2 cells [2]): more than 60%

SMILES: CC(=O)[C@H]1CC[C@H]2[C@@H]3CCC4=CC(=O)CC[C@]4(C)[C@H]3CC[C@]12C [Progesterone]
- Increases in FF-MAS (HepG2 cells [1]): 4 fold
- Increases in T-MAS (HepG2 cells [1]): 9 fold
- desmosterol as share of the cholesterol content of the cells (HepG2 cells [1]; 12-h incubation with 10 µM): 2.1%
- cholesterol (HepG2 cells [1]; [6]): 269 ± 3 µg
- desmosterol (HepG2 cells [1]; [6]): 5.7 ± 0.07 µg
- Dienol (m/z 486) (HepG2 cells [1]; [3]): 77 ± 9 % of control
- Enol T-MAS (m/z 484) (HepG2 cells [1]; [3]): 192 ± 41 % of control
- Dienol (m/z 486) (HepG2 cells [1]; [4]): 26 ± 3 % of control
- Enol T-MAS (m/z 484) (HepG2 cells [1]; [4]): 1000 ± 106 % of control
- Trienol FF-MAS (m/z 482) (HepG2 cells [1]; [4]): 3335 ± 397 % of control
- suppression of the Δ24 reduction step (accumulation of desmosterol) (HepG2 cells [1]): strongly suppressed
- order of suppression of Δ24 reduction (Δ24-reductase): pregnenolone > progesterone > 17α-OH-pregnenolone >> 17α-OH-progesterone
- Dienol (m/z 486) (rat testis; [5]): 109 ± 1 % of control
- Enol T-MAS (m/z 484) (rat testis; [5]): 107 ± 1 % of control
- Trienol FF-MAS (m/z 482) (rat testis; [5]): 336 ± 12 % of control
- Dienol (m/z 486) (rat testis; Conc. 20 µM): 103 ± 14 % of control
- Enol T-MAS (m/z 484) (rat testis; Conc. 20 µM): 129 ± 10 % of control
- Trienol FF-MAS (m/z 482) (rat testis; Conc. 20 µM): 487 ± 37 % of control
- lowering of the total amount of lathosterol (HepG2 cells [2]): ca. 50%
- reduction of de novo lathosterol synthesis (HepG2 cells [2]): more than 60%
